Measurements: article PMC12040169 (PLOS Biology, 2025)

Experiment: in vitro
Settings: human, hela cells, % viability

Row | Structure (SMILES) | viability at 28.5 h, 10 µM [%]
1 | CS(=O)(=O)Nc1cc(-c2noc([C@@H]3CCCN3Cc3ccccn3)n2)ccn1 [CBK288885] | 87.3
2 | CC(=O)Nc1ccc(CN2CCC[C@H]2c2nc(-c3ccnc(NS(C)(=O)=O)c3)no2)cc1 [CBK288888] | 109
3 | CS(=O)(=O)Nc1cc(-c2noc([C@@H]3CCCN3Cc3ccc(S(C)(=O)=O)cc3)n2)ccn1 [CBK288890] | 90.7
4 | CC(C)CN1CCC[C@H]1c1nc(-c2ccc(-n3ccnc3)nc2)no1 [CBK288894] | 88.5
5 | c1csc(CN2CCC[C@H]2c2nc(-c3ccc(-n4ccnc4)nc3)no2)c1 [CBK288895] | 111
6 | O=C(O)c1ccc(CN2CCC[C@H]2c2nc(-c3ccc(F)cn3)no2)cc1 [CBK288896] | 96.9
7 | COc1ccc(CN2CCC[C@H]2c2nc(-c3ccc(OC)nc3)no2)c(O)c1 [CBK288898] | 92
8 | O[C@@H]1C[C@@H](c2nc(-c3ccccn3)no2)N(Cc2ccccc2)C1 [CBK288900] | 81.3
9 | Nc1ncncc1-c1noc([C@@H]2CCCN2c2ncccn2)n1 [CBK288901] | 111
10 | CN(C)c1ccc(-c2noc([C@@H]3CCCN3C3CCOCC3)n2)cn1 [CBK288903] | 93.8
11 | O=C(NC[C@H]1O[C@@H](CC(=O)N2CCN(c3ccccn3)CC2)[C@H](O)[C@@H]1O)C1CC1 [CBK288904] | 107
12 | O=C(C[C@@H]1O[C@H](CNCc2cccc(Cl)c2)[C@@H](O)[C@H]1O)N1CCOCC1 [CBK288905] | 77.3
13 | O=C(NC[C@H]1O[C@@H](CC(=O)N2CCCC2)[C@H](O)[C@@H]1O)c1cccc(F)c1 [CBK288908] | 88.3
14 | Cc1ccc(S(=O)(=O)NC[C@H]2O[C@@H](CC(=O)N3CCCC3)[C@H](O)[C@@H]2O)cc1 [CBK288910] | 112
15 | O=C(C[C@@H]1O[C@H](CNS(=O)(=O)c2ccc(Cl)cc2)[C@@H](O)[C@H]1O)N1CCCC1 [CBK288911] | 94.2
16 | O=C(NC[C@H]1O[C@@H](CC(=O)N2CCCC2)[C@H](O)[C@@H]1O)c1ccc(F)c(Cl)c1 [CBK288913] | 90.9
17 | O=C(C[C@@H]1O[C@H](CNCc2cccc(Cl)c2)[C@@H](O)[C@H]1O)N1CCc2ccccc21 [CBK288918] | 89
18 | O=C(NC[C@H]1O[C@@H](CC(=O)N2CCN(c3ccccc3)CC2)[C@H](O)[C@@H]1O)c1ccccc1 [CBK288920] | 108
19 | O=C(NC[C@H]1O[C@@H](CC(=O)N2CCN(c3ccc(F)cc3)CC2)[C@H](O)[C@@H]1O)C1CC1 [CBK288921] | 92.7
20 | O=C(NC[C@H]1O[C@@H](CC(=O)N2CCN(c3ccc(F)cc3)CC2)[C@H](O)[C@@H]1O)c1ccco1 [CBK288922] | 95.4
21 | Cc1ccc(S(=O)(=O)NC[C@H]2O[C@@H](CC(=O)N3CCOCC3)[C@H](O)[C@@H]2O)cc1 [CBK288924] | 87.5
22 | CC1CCN(C(=O)C[C@@H]2O[C@H](CNS(=O)(=O)c3ccccc3)[C@@H](O)[C@H]2O)CC1 [CBK288927] | 89.7
23 | NC(=O)[C@@H]1C[C@@H](O)[C@H](O)[C@H]2[C@@H]1N(c1ccccc1)C(=S)N2Cc1ccc(F)cc1 [CBK288928] | 102
24 | Nc1ncncc1-c1noc([C@@H]2CCCN2C2CCOCC2)n1 [CBK288932] | 90.7
25 | NC(=O)[C@@H]1C[C@@H](O)[C@H](O)[C@H]2[C@@H]1N(c1ccc(Cl)cc1)C(=S)N2CC1CCCCC1 [CBK288933] | 86.8

Row | Structure (SMILES) | viability at 28.5 h, 10 µM [%]
26 | COc1ccc(CN2C(=S)N(CC3CCCCC3)[C@H]3[C@@H]2[C@H]2OC(=O)[C@@H]3C[C@H]2O)cc1 [CBK288936] | 117
27 | NC(=O)[C@H]1C[C@@H](O)[C@H](O)[C@H]2[C@@H]1S/C(=N\c1ccc(Cl)cc1)N2Cc1ccccc1 [CBK288940] | 94.9
28 | COc1ccc(/N=C2\S[C@H]3[C@H]([C@@H](O)[C@H](O)C[C@@H]3C(N)=O)N2Cc2ccc(F)cc2)cc1 [CBK288942] | 90.5
29 | COc1ccc(/N=C2\S[C@H]3[C@H]([C@@H](O)[C@H](O)C[C@@H]3C(N)=O)N2Cc2cccs2)cc1 [CBK288943] | 88.7
30 | NC(=O)[C@H]1C[C@@H](O)[C@H](O)[C@H]2[C@@H]1S/C(=N\c1ccccc1)N2Cc1cccs1 [CBK288944] | 100
31 | C=CCN(C)C(=O)[C@H]1C[C@@H](O)[C@H](O)[C@@H]2N=C(Nc3ccc(Cl)cc3)S[C@@H]21 [CBK288946] | 87
32 | C=CCN(C)C(=O)[C@H]1C[C@@H](O)[C@H](O)[C@@H]2N=C(Nc3ccc(OC)cc3)S[C@@H]21 [CBK288947] | 97.1
33 | C=CCN(C)C(=O)[C@H]1C[C@@H](O)[C@H](O)[C@@H]2N=C(Nc3cc(C)cc(C)c3)S[C@@H]21 [CBK288948] | 94.2
34 | Cc1cc(C)cc(NC2=N[C@H]3[C@@H](O)[C@H](O)C[C@H](C(=O)N4CCCCC4)[C@H]3S2)c1 [CBK288952] | 90
35 | O=C([C@H]1C[C@@H](O)[C@H](O)[C@@H]2N=C(Nc3ccc4c(c3)OCO4)S[C@@H]21)N1CCCCC1 [CBK288953] | 108
36 | c1ccc2oc(CN3Cc4nc[nH]c4C[C@H]3c3nc(-c4cnccn4)no3)cc2c1 [CBK288954] | 113
37 | CC(=O)Nc1ccc(CN2Cc3nc[nH]c3C[C@H]2c2nc(-c3ccc(F)cc3)no2)cc1 [CBK288956] | 89.7
38 | CC(=O)c1ccc(NC(=O)N2Cc3nc[nH]c3C[C@H]2c2nc(-c3ccc(C)cc3)no2)cc1 [CBK288959] | 83.6
39 | CC(C)NC(=O)N1Cc2nc[nH]c2C[C@H]1c1nc(-c2ccc(OC(F)(F)F)cc2)no1 [CBK288960] | 85.9
40 | Cc1cccc(-c2noc([C@@H]3Cc4[nH]cnc4CN3C(=O)CC(C)(C)CC(=O)O)n2)c1 [CBK288961] | 95.8
41 | Cc1cccc(-c2noc([C@@H]3Cc4[nH]cnc4CN3C(=O)NC(C)C)n2)c1 [CBK288962] | 97.6
42 | N#Cc1ccc(C(=O)N2Cc3nc[nH]c3C[C@H]2c2nc(-c3ccncc3)no2)cc1 [CBK288963] | 117
43 | O=C(c1ccco1)N1Cc2nc[nH]c2C[C@H]1c1nc(-c2ccc3ccccc3c2)no1 [CBK288965] | 108
44 | O=C(Nc1ccc(F)cc1)N1Cc2nc[nH]c2C[C@H]1c1nc(-c2ccc(F)cc2)no1 [CBK288970] | 95
45 | O=C(NCc1ccccc1)[C@@H]1Cc2[nH]cnc2CN1C(=O)C1CCCCC1 [CBK288972] | 113
46 | CC(C)NC(=O)N1Cc2nc[nH]c2C[C@H]1C(=O)NCc1ccco1 [CBK288974] | 92.9
47 | CCNC(=O)N1Cc2nc[nH]c2C[C@H]1C(=O)NCc1ccc(C#N)cc1 [CBK288975] | 96.2
48 | COc1ccc(CN2Cc3nc[nH]c3C[C@H]2C(=O)NCc2ccccc2)c2ccccc12 [CBK288976] | 86.5
49 | O=C([C@@H]1Cc2[nH]cnc2CN1Cc1cc2ccccc2o1)N1CCOCC1 [CBK288977] | 114
50 | CN(Cc1ccccc1)C(=O)[C@@H]1Cc2[nH]cnc2CN1Cc1cc2ccccc2o1 [CBK288978] | 108

Row | Structure (SMILES) | viability at 28.5 h, 10 µM [%]
51 | O=C(NCc1ccc(C(F)(F)F)cc1)[C@@H]1Cc2[nH]cnc2CN1C1CCOCC1 [CBK288981] | 103
52 | COC(=O)[C@@H]1Cc2ncn(Cc3ccc(OC)cc3)c2CN1C(=O)c1ccc(C#N)cc1 [CBK288982] | 95.4
53 | COC(=O)[C@@H]1Cc2ncn(Cc3ccc(Cl)cc3)c2CN1C(=O)c1ccc(C#N)cc1 [CBK288984] | 94.5
54 | COC(=O)[C@@H]1Cc2ncn(C(C)C)c2CN1S(=O)(=O)c1ccc([N+](=O)[O-])cc1 [CBK288985] | 95.7
55 | COC(=O)[C@@H]1Cc2ncn(C(C)C)c2CN1C(=O)CC(C)(C)C [CBK288988] | 88.9
56 | COC(=O)[C@@H]1Cc2ncn(C(C)C)c2CN1C(=O)c1ccc(F)cc1 [CBK288990] | 80.6
57 | CCCS(=O)(=O)N1Cc2c(ncn2C)C[C@H]1C(=O)OC [CBK288991] | 90.2
58 | COC(=O)[C@@H]1Cc2ncn(C)c2CN1S(=O)(=O)c1cccs1 [CBK288992] | 104
59 | COC(=O)[C@@H]1Cc2ncn(C)c2CN1C(=O)c1ccc(C#N)cc1 [CBK288994] | 76.5
60 | CCCn1cnc2c1CN(C(C)=O)[C@H](C(=O)OC)C2 [CBK288995] | 101
61 | CC(C)NC(=O)N1Cc2nc[nH]c2C[C@H]1c1nc(-c2ccccc2)no1 [CBK288996] | 83
62 | c1ccc2oc(CN3Cc4nc[nH]c4C[C@H]3c3nc(-c4ccc5c(c4)OCO5)no3)cc2c1 [CBK288998] | 81.5
63 | CC(C)NC(=O)N1Cc2nc[nH]c2C[C@H]1c1nc(-c2ccc(F)c(Cl)c2)no1 [CBK288999] | 86.6
64 | O=C1NC[C@@H](CCC(=O)N2CCCC2)N2C[C@@H](NC(=S)Nc3ccccc3)C[C@@H]12 [CBK289004] | 113
65 | N[C@H]1C[C@H]2C(=O)NC[C@@H](CCC(=O)NCc3cccs3)N2C1 [CBK289005] | 86.6
66 | O=C(CC[C@@H]1CNC(=O)[C@@H]2C[C@H](NC(=O)c3ccco3)CN12)Nc1ccccc1 [CBK289007] | 91.1
67 | O=C(CC[C@@H]1CNC(=O)[C@@H]2C[C@H](NC(=O)c3cccc(F)c3)CN12)Nc1ccccc1 [CBK289008] | 83.9
68 | O=C(N[C@H]1C[C@H]2C(=O)NC[C@@H](CCC(=O)N3CCOCC3)N2C1)c1cccs1 [CBK289009] | 92
69 | O=C(N[C@H]1C[C@H]2C(=O)NC[C@@H](CCC(=O)N3CCCCC3)N2C1)c1cccs1 [CBK289010] | 87.9
70 | O=C1NC[C@@H](CCC(=O)N2CCCCC2)N2C[C@@H](NS(=O)(=O)c3ccccc3)C[C@@H]12 [CBK289012] | 92.9
71 | COc1ccc(C(=O)N[C@H]2C[C@H]3C(=O)NC[C@@H](CCC(=O)N4CCN(C)CC4)N3C2)cc1 [CBK289016] | 90.6
72 | C#CCNC(=O)CC[C@H]1CNC(=O)[C@@H]2[C@@H](CCN2Cc2ccc(O)cc2)N1C [CBK289017] | 94
73 | C#CCNC(=O)CC[C@H]1CNC(=O)[C@@H]2[C@@H](CCN2Cc2nc3ccccc3n2C)N1C [CBK289018] | 102
